According to the NIST ThermoML archive (doi:10.1021/acs.jced.9b00026):
± gives the expanded uncertainty stated by the source.

Key:
[1] = Ring tensiometer
[2] = wn = mass fraction of the nth substance listed; details: for surface tension liquid-gas: Ring tensiometer; for mass density: 101 kPa, Liquid, Vibrating tube method

O [water]
[1]
Details | surface tension liquid-gas
298 K | 71.52 ± 0.91 mN/m [middle of 7 runs]
308 K | 69.73 ± 0.89 mN/m [middle of 7 runs]
313 K | 69.89 ± 0.89 mN/m
318 K | 68.48 ± 0.87 mN/m [middle of 7 runs]
328 K | 66.76 ± 0.85 mN/m [middle of 7 runs]

O [water] + CCO
[2], w2 = 0
Details | surface tension liquid-gas [mN/m]
298 K | 72.04 ± 0.92
313 K | 69.89 ± 0.89

O [water] + O=C(O)[C@@H]1CCCN1
[2], w2 = 0
Details | surface tension liquid-gas [mN/m]
298 K | 71.61 ± 0.91
308 K | 70.1 ± 0.89
318 K | 68.56 ± 0.88
328 K | 66.76 ± 0.85

NC(=O)CC[C@H](N)C(=O)O [L-glutamine] + O
[2]
Details | mass density, w1 = 0.005 [kg/m3] | surface tension liquid-gas, w1 = 0.00499 [mN/m] | surface tension liquid-gas, w1 = 0.00998 [mN/m] | surface tension liquid-gas, w1 = 0.01501 [mN/m] | surface tension liquid-gas, w1 = 0.02001 [mN/m] | surface tension liquid-gas, w1 = 0.02499 [mN/m] | surface tension liquid-gas, w1 = 0.02999 [mN/m]
298 K | 998.8 ± 0.6 | 71.43 ± 0.91 | 71.49 ± 0.91 | 71.53 ± 0.91 | 71.55 ± 0.91 | 71.55 ± 0.91 | 71.55 ± 0.91
308 K | – | 69.29 ± 0.88 | 69.65 ± 0.89 | 69.78 ± 0.89 | 69.89 ± 0.89 | 69.96 ± 0.89 | 70.02 ± 0.89
318 K | – | 68.34 ± 0.87 | 68.42 ± 0.87 | 68.59 ± 0.88 | 68.58 ± 0.88 | 68.64 ± 0.88 | 68.67 ± 0.88
328 K | – | 66.55 ± 0.85 | 66.69 ± 0.85 | 66.76 ± 0.85 | 66.85 ± 0.86 | 66.98 ± 0.86 | 67.04 ± 0.86

O [water] + C[C@H](O)C(=O)O
[2], w2 = 0
Details | surface tension liquid-gas [mN/m]
298 K | 71.53 ± 0.91
308 K | 70.02 ± 0.89
318 K | 68.48 ± 0.87
328 K | 67.18 ± 0.86

O [water] + N[C@@H](CO)C(=O)O
[2], w2 = 0
Details | surface tension liquid-gas [mN/m]
298 K | 71.46 ± 0.91
308 K | 69.71 ± 0.89
318 K | 68.51 ± 0.87
328 K | 66.66 ± 0.85

O=C(O)CC(O)C(=O)O (centres undefined) [hydroxybutanedioic acid] + O
[2]
Details | mass density, w1 = 0.01 [kg/m3] | surface tension liquid-gas, w1 = 0.01049 [mN/m] | surface tension liquid-gas, w1 = 0.02026 [mN/m] | surface tension liquid-gas, w1 = 0.03004 [mN/m] | surface tension liquid-gas, w1 = 0.04002 [mN/m] | surface tension liquid-gas, w1 = 0.06001 [mN/m] | surface tension liquid-gas, w1 = 0.07998 [mN/m] | surface tension liquid-gas, w1 = 0.1 [mN/m]
298 K | 1000.8 ± 0.6 | 71.39 ± 0.91 | 71.2 ± 0.91 | 71.09 ± 0.91 | 70.92 ± 0.9 | 70.61 ± 0.9 | 70.44 ± 0.9 | 70.2 ± 0.9
308 K | – | 69.64 ± 0.89 | 69.49 ± 0.89 | 69.42 ± 0.89 | 69.28 ± 0.89 | 69.18 ± 0.88 | 68.83 ± 0.88 | 68.62 ± 0.88
318 K | – | 68.16 ± 0.87 | 68.16 ± 0.87 | 68.11 ± 0.87 | 67.78 ± 0.87 | 67.63 ± 0.87 | 67.49 ± 0.87 | 67.25 ± 0.86
328 K | – | 66.67 ± 0.85 | 66.54 ± 0.85 | 66.48 ± 0.85 | 66.43 ± 0.85 | 66.24 ± 0.85 | 66.05 ± 0.85 | 65.89 ± 0.85

CSCC[C@H](N)C(=O)O [L-methionine] + O
[2]
Details | mass density, w1 = 0.005 [kg/m3] | surface tension liquid-gas, w1 = 0.005 [mN/m] | surface tension liquid-gas, w1 = 0.01 [mN/m] | surface tension liquid-gas, w1 = 0.02 [mN/m] | surface tension liquid-gas, w1 = 0.03 [mN/m] | surface tension liquid-gas, w1 = 0.04001 [mN/m]
298 K | 998.5 ± 0.6 | 71.39 ± 0.91 | 71.3 ± 0.91 | 71.02 ± 0.9 | 70.77 ± 0.9 | 70.61 ± 0.9
308 K | – | 69.89 ± 0.89 | 69.69 ± 0.89 | 69.45 ± 0.89 | 69.15 ± 0.88 | 68.9 ± 0.88
318 K | – | 68.4 ± 0.87 | 68.3 ± 0.87 | 68.06 ± 0.87 | 67.74 ± 0.87 | 67.28 ± 0.86
328 K | – | 66.65 ± 0.85 | 66.56 ± 0.85 | 66.32 ± 0.85 | 65.78 ± 0.84 | 64.97 ± 0.83
